US20260138969A1 (Korea Research Institute of Chemical Technology, priority 2023, published 2026)

Tests used:
SH-SY5Y cells = test: Cytoprotective effects in MPP+-induced human neurons (CCK-8); assay type: cell-based; settings: MPP+ 5 mM induced cytotoxicity, cell viability by CCK-8
Protocol: SH-SY5Y cells were purchased from ATCC and cultured at 37° C. and 5% CO2 in RPMI medium containing 10% FBS and 1% penicillin and streptomycin. MPP+ was purchased from Sigma Aldrich and treated with 5 mM to induce cytotoxicity.

PC12 cells = test: Neuronal protective efficacy against 6-OHDA (MTT); assay type: cell-based; settings: Rattus norvegicus, PC-12, 6-OHDA 40 μM, Control = 100, read-out: cell viability (AVE); for viability at 0.1 µM: compound 0.1 μM; for viability at 0.3 µM: compound 0.3 μM; for viability at 1 µM: compound 1 μM
Protocol: The neuronal toxicity substances 6-OHDA (6-hydroxydopamine hydrobromide) and MPP+ (1-methyl-4-phenylpyridinium) were purchased from Sigma-Aldrich (Saint Louis, MO, USA) and made into 100 mM DMSO stock. PC12 cells were seeded on 96-well plates with 4 pieces of 1×10 per well and incubated for one day. The cells were pretreated with each concentration of embodied compound for 1 h. Subsequently, 40 μM 6-OHDA and 2 mM MPP^+ were added and incubated for 24 hours, respectively. Subsequently, cell viability was measured using MTT (Invitrogen, MA, USA).

[1] = system: α-Syn transgenic Parkinson's disease mouse model; test: α-Syn transgenic Parkinson's disease mouse model: step error (beam test); assay type: in vivo; settings: at 7 and 9 months; Memantine 10 mg/kg, Example 3 2/10/50 mg/kg, Example 2 2 mg/kg PO QD; vs G2
Protocol: (§1) The test drug was administered once daily (QD) via oral administration (PO) with a solution of 5 ml/kg for 5 months from 4 months to 9 months of age. Motor behavior tests (beam test) and neurological scores (modified Irwin test) were performed at 4 months (before administration), 7 months, and 9 months. After the final behavioral test, tissue samples were taken. Weight was measured on the same day once a week from 4 months of age until the end of the study.
The procedure described by Fleming et al. (J Neurosci, 24:9434-40, 2004) was adopted as the beam test (Challenging Beam Traversal). Exercise capacity was measured with a new beam test that was a modification of the existing beam walking test. The beam is made of Plexiglas and consists of four sections (each 25 cm and a total length of 1 m), each with a different width. The beam is designed to start at 3.5 cm wide and gradually narrow in increments of 0.5 cm×1 cm. A shelf 1 cm wide was placed 1.0 cm below the top surface of the beam.
The mouse was trained to cross the length of the beam, starting from the widest section and ending with the narrowest and most difficult section. The narrow end of the beam is designed to connect directly to the mouse's house cage. The mice were trained for two days before testing, and all training was carried out without a mesh grid. On the first day, two auxiliary exercises were performed, in which the mouse was placed on a beam and the home cage was placed close to the mouse. This induces it to move forward along the beam. […]
The error was counted if the limb (front or hind leg) passed through the grid during forward movement and was visible between the grid and the beam surface. […] Error was measured by scoring each limb slippage individually. For example, a mouse with three limbs slipping off the grid in one step was rated with an error score of 3 points, while a mouse with only one limb slipped off the grid in one step was evaluated with an error score of 1 in that step. […] The number of step errors and the time it took to cross were measured and averaged in all five experiments.

[2] = system: α-Syn transgenic Parkinson's disease mouse model; test: α-Syn transgenic Parkinson's disease mouse model: TH staining of striatum; assay type: in vivo; settings: 9 months of age; Example 3 2/10/50 mg/kg, Example 2 2 mg/kg PO QD; vs G2
Protocol: as §1
At 9 months of age, the measurement period ended, the mice were anesthetized, and then the experiment was terminated by cardiac puncture according to IACUC guidelines. Mice were perfused transcardially with 0.9% saline for tissue staining, followed by 4% paraformaldehyde until the mice were fixed. The brains were isolated and immobilized by soaking in 4% paraformaldehyde at 4° C. for 24 hours, followed by 30% sucrose added to PBS containing 0.02% sodium azide and stored at 4° C. for 3 days. Brain samples embedded in OCT compounds were sectioned to a thickness of 20 μm using Leica CM1950 (Leica Microsystems, Germany). The sections were stored at 4° C. in a preservation solution until they were stained by antibodies. […]
TH-stained brain tissue was imaged using an immunofluorescence microscope (Olympus, BZ21) in Olympus. The fluorescence intensity of the striatum was analyzed using Image J software.

[3] = system: CDAHFD-induced non-alcoholic steatohepatitis mouse model; test: CDAHFD-induced non-alcoholic steatohepatitis mouse model: liver fibrosis (Picrosirius red); assay type: in vivo; settings: for Picrosirius red staining area in the liver: Selonsertib 30 mg/kg, Example 3 10 and 30 mg/kg, Example 2 10 and 30 mg/kg PO QD, CDAHFD diet 4 and 8 weeks
Protocol: Creation of CDAHFD-induced NASH model and drug administration were carried out by dividing C57BL/6 male mice at 3 weeks of age into 7 groups as shown in Table 16 below. The control group (G1) was fed standard feed and water. Groups G2 to G7 were fed the CDAHFD (Research Diet Inc, #A06071302) diet for 4 and 8 weeks.
Picrosirius red staining was used for histological visualization of collagen fibers. Histopathology analysis evaluated the efficacy of improving liver fibrosis.
For mice in each group, three sections of the liver fixed with 4% PFA (paraformaldehyde) were prepared with paraffin blocks. Paraffin blocks were sectioned to a thickness of 5 μm (Histocore AUTOCUT R, Leica Microsystems, Germany) and the sections were mounted on silane-coated slides (MUTO, JPN) and stored until staining.
Xylene was used to remove paraffin from the slides, and the slides were moisturized and washed. The slides were stained with a solution of Picrosirius red (ab150681, Abcam, UK) and washed off with a solution of acetic acid. The slides were fitted after dehydration and cleaning using alcohol and xylene. For each section, two images of different areas were taken using a microscope (Axioscan7, ZEISS, Germany). The fibrotic area was measured using image J software compared to the total area. FIGS. 23a and 23b are graphs and images of Picrosirius red stained area ratios in the liver of a CDAHFD-induced mouse model of nonalcoholic steatohepatitis.

Cc1cc(F)c(C(=O)Nc2cccc(-n3nnc4c3CCCC4)n2)cc1-n1cnc(C2CC2)c1 [Example 3, 5-(4-cyclopropyl-1H-imidazole-1-yl)-2-fluoro-4-methyl-N-(6-(4,5,6,7-tetrahydro-1H-benzo[d][1,2,3]triazole-1-yl)pyridine-2-yl)benzamide]
EC50 (SH-SY5Y cells): 23 nM | viability at 0.1 µM (PC12 cells): 90% | viability at 0.3 µM (PC12 cells): 92% | viability at 1 µM (PC12 cells): 92.8% | number of step errors (beam test) [1]: significant reduction in the number of step errors compared to Group G2 | TH staining intensity of striatum [2]: significantly higher than that of group G2 | Picrosirius red staining area in the liver [3]: significantly reduced

Cc1cc(F)c(C(=O)Nc2cccc(-n3nnc4c3CCC4)n2)cc1-n1cnc(C2CC2)c1 [Example 2, 5-(4-cyclopropyl-1H-imidazole-1-yl)-N-(6-(5,6-dihydrocyclopenta[d][1,2,3]triazole-1 (4H)-yl)pyridine-2-yl)-2-fluoro-4-methylbenzamide]
EC50 (SH-SY5Y cells): 64 nM | viability at 0.1 µM (PC12 cells): 88.8% | viability at 0.3 µM (PC12 cells): 91.5% | viability at 1 µM (PC12 cells): 96.8% | number of step errors (beam test) [1]: significant reduction in the number of step errors compared to Group G2 | TH staining intensity of striatum [2]: significantly higher than that of group G2 | efficacy in improving liver fibrosis (Picrosirius red) ([3]; 30 mg/kg PO QD, after 4 weeks of the CDAHFD diet): most improved efficacy | Picrosirius red staining area in the liver [3]: significantly reduced
